Data published in PubChem BioAssay (NCI).
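1) Cells in 96-well plates. 2) Compound, 48 h, 5 concentrations. 3) Linear interpolation between surrounding doses. 4) Unreached endpoint = highest concentration. TGI is the concentration that stops growth completely.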

Key:
Assay in all cases: NCI-60 cell line screen, 48 h
M19-MEL melanoma = system: M19-MEL melanoma
SNB-78 CNS = system: SNB-78 CNS
DMS 114 small cell lung = system: DMS 114 small cell lung
DLD-1 colon = system: DLD-1 colon
XF 498 CNS = system: XF 498 CNS
HOP-18 NSCLC = system: HOP-18 NSCLC
RXF-631 renal = system: RXF-631 renal

SMILES	TGI (M19-MEL melanoma)	TGI (SNB-78 CNS)	TGI (DMS 114 small cell lung)	TGI (DLD-1 colon)	TGI (XF 498 CNS)	TGI (HOP-18 NSCLC)	TGI (RXF-631 renal)
O=C1Nc2ccccc2Nc2nc3cccccc-3c21	> 100 µM	> 100 µM	> 100 µM	> 100 µM	> 100 µM		
CC(C)OP(=O)(OC(C)C)/C(=N/N)NNc1ccc([N+](=O)[O-])cc1	> 100 µM	> 100 µM	> 100 µM	> 100 µM	> 100 µM		
CC(C)C(=O)/C=C/c1ccc(Cl)cc1	29.6 µM		39.8 µM	32.2 µM	20.5 µM	13.8 µM	
COC(=O)N/N=C/c1oc(-c2ccccc2)c(-c2ccccc2)c1[N+](=O)[O-]	> 100 µM	> 100 µM	> 100 µM	> 100 µM	> 100 µM		> 100 µM
N#CC(C#N)=C(N)/C(C#N)=C/c1cc(O)c(O)c(Br)c1	> 100 µM	> 100 µM	88.5 µM	> 100 µM	> 100 µM		
CSc1ccc2c(cc1=O)C(NC(=O)c1ccc(OC(C)=O)cc1)CCc1cc(O)c(O)c(O)c1-2 (centres undefined)	29.2 µM	> 100 µM	52.4 µM	35.8 µM			
O=C(Nc1ccc(Cl)cc1)/C(Cc1cccc[n+]1[O-])=N\Nc1ccc([N+](=O)[O-])cc1[N+](=O)[O-]	> 100 µM	> 100 µM	> 100 µM	> 100 µM			> 100 µM
CC[C@@H](C(=O)[C@@H](C)[C@@H](O)[C@H](C)CCc1ccc(C)c(O)c1C(=O)O)[C@H]1O[C@](CC)([C@H]2CC[C@](O)(CC)[C@H](C)O2)C[C@@H]1C	4.06 µM	17.1 µM	4.15 µM	13.8 µM	3.41 µM	13.1 µM	10.7 µM
CC(=O)OC1CC2(c3ccccc3)C(=O)c3ccccc3N2O1 (centres undefined)	> 100 µM	> 100 µM	> 100 µM	> 100 µM	> 100 µM	> 100 µM	
O=C1c2nn(-c3ccccc3)nc2C(c2ccccc2)N1c1ccccc1 (centres undefined)	> 100 µM	> 100 µM	> 100 µM	> 100 µM	> 100 µM	> 100 µM	
CCOc1ccc2c(ccc(/C=C\c3cc(C)c4cccnc4c3O)[n+]2C)c1	> 100 µM			4.32 µM		7.49 µM	
O=C1C2CCC(C2)C12CC1(c3ccccc3)C(=O)c3ccccc3N1O2 (centres undefined)	> 100 µM	> 100 µM	> 100 µM	> 100 µM	> 100 µM	> 100 µM	
CC12CC[C@H](O)C(C)(C)[C@H]1CC[C@](C)(O)C2COc1ccc2ccc(=O)oc2c1 (some centres undefined)	> 100 µM	> 100 µM	> 100 µM	> 100 µM	> 100 µM	> 100 µM	
COc1ccc([N-]/C(=N\n2c(=O)c(C)nn(C)c2=S)N(c2ccc(OC)cc2)c2nn3c(=O)c(C)n[n+](C)c3s2)cc1	> 100 µM	> 100 µM	> 100 µM	> 100 µM		> 100 µM	
O=c1c2ccccc2nc(-c2ccccc2)n1NC(=S)Nc1ccc(Cl)cc1[N+](=O)[O-]	> 100 µM		> 100 µM	> 100 µM		> 100 µM	
CC(C)c1cccc(C(C)C)c1NC(=O)C(=O)C(C(=O)c1ccc2ccccc2c1)C1OC(=O)c2ccccc21 (centres undefined)	> 100 µM	> 100 µM	> 100 µM	> 100 µM			
COc1ccc(C2ON(c3ccccn3)CC=C2C)cc1 (centres undefined)	> 100 µM	> 100 µM	> 100 µM	> 100 µM	> 100 µM	> 100 µM	> 100 µM
